In brackets after ≈: the same amount, converted by molar mass. Entries after “also recorded” stand apart in the source; their conditions may differ. Like-named read-outs stand apart in the source and are kept apart here. Bridge positions count the residues as written; N and C are the ends. Ends that are not written are not given here. Peptide text beside a SMILES is read from it.
Key:
human red blood cells = tested on: human red blood cells
Procedure: To measure the hemolytic activity of peptides, 2% human red blood cells were added to various dilutions of peptide reconstituted in PBS in a sterile U-bottom polystyrene 96 well plate (Dean et al., 2011). The commercially obtained, deidentified human RBCs (BIOIVT Westbury, NY) were prepared as follows: 1 mL of K2EDTA whole blood from a healthy donor was centrifuged at 1,600 g for 10 min and plasma was discarded. The remaining RBCs were washed 4 times with 1 ml 1×PBS (HyClone), then the pallet after the last wash was resuspended with 750 ul of 1×PBS. 2% RBCs suspension was prepared by adding 200 ul of washed cells to 9.8 mL of 1×PBS. […] of 2% RBCs were added to each well (n=3) containing diluted peptides resulting in final peptide concentration of 100, 10, and 1 μg/ml. 2% RBCs with 1×PBS alone served as the negative control (No peptide), and 2% RBC in deionized water as the positive control, leading to full lysis. The plate was incubated for 1 h at 37 C and then centrifuged at 1,000 rpm for 2 min. The supernatant was transferred to a fresh regular 96 well plate and read at OD540 as previously reported (Dean et al., 2011). Student's t-test was used to determine whether points were statistically significant.

E. coli 4157 [1] = assay type: cell-based, Escherichia coli
Procedure: (§1) Staphylococcus aureus ATCC 33592 (MDR) and BAA-1718, E. coli ATCC 51659 (MDR) and 4,157 were purchased from the American Type Culture Collection (Manassas, VA, United States). All strains are reference strains. Bacteria were grown in Tryptic Soy Broth (BD 211825), except E. coli 4157 which was grown in Nutrient Broth (Difco 234000), overnight in a shaking incubator (37 C). Bacteria were aliquoted, mixed with glycerol (final concentration of 20% of glycerol) and frozen at −80 C and enumerated via serial dilution and plating prior to experimentation.
(§2) The full range MIC activity testing of the peptides was then determined as previously reported using the Mueller Hinton Broth (BD 275730) in a 96 well plate following the CLSI protocol (Wiegand et al., 2008). Enumerated bacteria were diluted in MHB and 50 ul of 1×10^6 CFU/mL (5×10^4 CFU) was added to each well with 50 ul of a decreasing series of twofold peptide concentration. The plate was incubated for 16-20 h at 37 C and then read on a spectrophotometer at OD600 nm.

E. coli O157:H7 51659 [2] = assay: Antibacterial screening at 100 μg/ml; assay type: cell-based, Escherichia coli; settings: for bactericidal activity: 100 μg/ml, MDR E. coli
Procedure: as §1
(§3) The antibacterial screening test of the peptides (n=3) was first determined at a final peptide concentration of 100 μg/ml and a final bacterial concentration of 5×10^5 CFU/mL in Difco Mueller Hinton Broth (BD 275730) in a 96 well plate. The plate was incubated for 16-20 h at 37 C and then read on a spectrophotometer at OD600 nm. […] Wells containing medium only were used as sterility control, in the wells around the edge of the plates. LL-37 was used as a control in the first run of experiments against the MDR bacterial strains (Turner et al., 1998). […] The sequence of BF-CATH was derived from DBAASP database listed as cathelicidin-BF-34 with the following sequence: […]

E. coli 4157 [3] = assay: Antibacterial screening at 100 μg/ml; assay type: cell-based, Escherichia coli; settings: peptide 100 μg/ml
Procedure: as §1, §3

S. aureus 33592 = assay type: cell-based, Staphylococcus aureus; settings: MDR S. aureus (MRSA) 33592, Mueller Hinton Broth
Procedure: as §1, §2

S. aureus BAA-1718 = assay type: cell-based, Staphylococcus aureus; settings: antibiotic susceptible S. aureus BAA-1718, Mueller Hinton Broth
Procedure: as §1, §2

E. coli O157:H7 51659 [4] = assay: EC50 antimicrobial activity assay (low salt, 10 mM sodium phosphate); assay type: cell-based, Escherichia coli; settings: MDR E. coli, 3 h
Procedure: as §1
The antimicrobial activity of the PHNX peptides and LL-37 (AnaSpec 61302) against bacteria was determined as previously described (Barksdale et al., 2016, 2017). […] Serial dilutions were then prepared in 1× Dulbecco's PBS and 8 ul of each dilution was spotted in triplicate on Tryptic Soy Agar plates, which were incubated (37 C, 24 h) and CFUs were counted (Barksdale et al., 2016, 2017). Bacterial survival at each peptide concentration was calculated based on the ratio of the number of colonies on each experimental plate and the average number of colonies observed for assay cultures lacking peptide. […] EC50 values were determined by fitting the data from the antimicrobial assays to a standard sigmoidal dose-response curve. […]

S. aureus MRSA 33592 [5] = assay type: cell-based, Staphylococcus aureus; settings: low salt, 10 mM sodium phosphate, 3 h
Procedure: as §1
The antimicrobial activity of the PHNX peptides and LL-37 (AnaSpec 61302) against bacteria was determined as previously described (Barksdale et al., 2016, 2017). Briefly, 1×10^5 CFU per well of bacteria were incubated with different peptide concentrations (n=3) in a 50-ul solution of 10 mM sodium phosphate buffer (3 h, 37 C). Serial dilutions were then prepared in 1× Dulbecco's PBS and 8 ul of each dilution was spotted in triplicate on Tryptic Soy Agar plates, which were incubated (37 C, 24 h) and CFUs were counted (Barksdale et al., 2016, 2017). Bacterial survival at each peptide concentration was calculated based on the ratio of the number of colonies on each experimental plate and the average number of colonies observed for assay cultures lacking peptide. The peptide concentration required to kill 50% of the viable bacteria in the assay cultures (EC5O) was determined by plotting percent survival as a function of the log of peptide concentration (log μg/ml) and fitting the data using GraphPad Prism 6 (GraphPad Software Inc., San Diego, CA, United States). For the purpose of graphing, samples that had no peptide (0 μg/ml) are plotted at 1×10^−7 μg/ml peptide. EC50 values were determined by fitting the data from the antimicrobial assays to a standard sigmoidal dose-response curve. […] Wells containing only 10 mM sodium phosphate buffer were used as sterility control.

MDR E. coli 51659 = assay type: cell-based, Escherichia coli; settings: MDR E. coli O157:H7 51659, Mueller Hinton Broth (high salt)
Procedure: as §1, §2

S. aureus MRSA 33592 [6] = assay: Antibacterial screening at 100 μg/ml; assay type: cell-based, Staphylococcus aureus; settings: MDR S. aureus
Procedure: as §1, §3

E. coli ATCC 25922 = E. coli ATCC 25922 (Wang et al., 2008); cited from earlier work
[7] = peptide 1 μg/ml, 2% human RBCs (EDTA), 1 h

Compound: CC[C@H](C)[C@H](NC(=O)[C@H](CCCCN)NC(=O)[C@H](CCC(=O)O)NC(=O)[C@H](CCCCN)NC(=O)[C@H](CO)NC(=O)[C@H](CCCCN)NC(=O)[C@H](CCCNC(=N)N)NC(=O)[C@H](Cc1ccccc1)NC(=O)[C@H](Cc1ccccc1)NC(=O)[C@H](CC(=O)O)NC(=O)CNC(=O)[C@H](CC(C)C)NC(=O)[C@@H](N)CC(C)C)C(=O)NCC(=O)N[C@@H](CCCCN)C(=O)N[C@@H](CCC(=O)O)C(=O)N[C@@H](Cc1ccccc1)C(=O)N[C@@H](CCCCN)C(=O)N[C@@H](CCCNC(=N)N)C(=O)N[C@H](C(=O)N[C@H](C(=O)N[C@@H](CCC(N)=O)C(=O)N[C@@H](CCCNC(=N)N)C(=O)N[C@H](C(=O)N[C@@H](CCCCN)C(=O)N[C@@H](CC(=O)O)C(=O)N[C@@H](Cc1ccccc1)C(=O)N[C@@H](CC(C)C)C(=O)N[C@@H](CCCNC(=N)N)C(=O)N[C@@H](CC(N)=O)C(=O)N[C@@H](CC(C)C)C(=O)N[C@H](C(=O)N1CCC[C@H]1C(=O)N[C@@H](CCCNC(=N)N)C(=O)N[C@H](C(=O)N[C@@H](CCC(=O)O)C(=O)N[C@@H](CO)C(=O)O)[C@@H](C)O)C(C)C)[C@@H](C)CC)C(C)C)[C@@H](C)CC [LL-37, reference compound]
- hemolysis (human red blood cells; [7]): negligible hemolysis
- hemolysis (human red blood cells; peptide 100 μg/ml, 2% human RBCs (EDTA), 1 h): approximately 40%

Compound: CC[C@H](C)[C@H](NC(=O)[C@H](CCCCN)NC(=O)[C@H](CC(=O)O)NC(=O)[C@H](CC(C)C)NC(=O)[C@H](CC(C)C)NC(=O)[C@H](CCC(N)=O)NC(=O)CNC(=O)[C@H](C)NC(=O)[C@H](CC(C)C)NC(=O)[C@H](CC(N)=O)NC(=O)[C@H](CCCCN)NC(=O)[C@H](C)NC(=O)[C@H](C)NC(=O)[C@H](CC(N)=O)NC(=O)[C@H](CCCCN)NC(=O)[C@@H](NC(=O)[C@@H](NC(=O)[C@H](CC(=O)O)NC(=O)[C@H](CCSC)NC(=O)[C@H](CC(C)C)NC(=O)CN)[C@@H](C)O)C(C)C)C(=O)N[C@@H](CCCCN)C(=O)N[C@H]1CSSC[C@@H](C(=O)O)NC(=O)CNC(=O)[C@H]([C@@H](C)O)NC(=O)[C@H]([C@@H](C)CC)NC(=O)[C@H](CCCCN)NC1=O [PHNX-8] (H-GLMDTVKNAAKNLAGQLLDKIKCKITGC-OH; disulfide 23-28 (inferred); N-terminus and C-terminus assumed)
- hemolysis (human red blood cells): higher hemolytic activity
- MIC (E. coli 4157 [1]; 4157): 32 µg/mL (≈ 10.9 µM)
- growth inhibition in the screen (in words) (E. coli O157:H7 51659 [2]; peptide 100 μg/ml, MDR E. coli 51659): showed activity
- bacterial survival (E. coli O157:H7 51659 [2]; peptide 100 μg/ml, antibiotic resistant E. coli O157:H7 51659): ~0%
- growth inhibition in the screen (in words) (E. coli 4157 [3]; E. coli 4157): showed activity
- bacterial survival (E. coli 4157 [3]; antibiotic susceptible E. coli 4157): ~0%
- MIC (S. aureus 33592): without any activity; also recorded: no activity
- MIC (S. aureus BAA-1718): without any activity; also recorded: no activity

Compound: FGKLLKLGKGLGG [PHNX-2]
- EC50 (E. coli O157:H7 51659 [4]): no activity
- EC50 (S. aureus MRSA 33592 [5]): no activity

Compound: FGKLLKLGKGLKG [PHNX-3]
- EC50 (E. coli O157:H7 51659 [4]): no activity
- EC50 (S. aureus MRSA 33592 [5]): no activity

Compound: FIGAIASYLKKFR [PHNX-6]
- EC50 (S. aureus MRSA 33592 [5]): 7.95 µg/mL

Compound: FLIKILKGGKGGK [PHNX-5]
- hemolysis (human red blood cells): higher hemolytic activity
- EC50 (S. aureus MRSA 33592 [5]): > 10 µg/mL

Compound: FLLKLGLGKKKLL [PHNX-4]
- hemolysis (human red blood cells): higher hemolytic activity

Compound: GVVDIIKGAGKKFAKGLAGKIANKK [PHNX-7]
- hemolysis (human red blood cells): higher hemolytic activity
- EC50 (S. aureus MRSA 33592 [5]): 2.09 µg/mL
- MIC (MDR E. coli 51659): > 64 µg/mL

Compound: KRFKKFFRKLKKSVKKRAKEFFKKPRVIGVSIPF [BF-CATH, reference compound]
- bactericidal activity (S. aureus MRSA 33592 [6]): 100%
- previously reported antimicrobial activity level (E. coli ATCC 25922): 2.3 µg/mL
- MIC (MDR E. coli 51659): strong antimicrobial activity
- MIC (E. coli 4157 [1]; antibiotic susceptible E. coli 4157, Mueller Hinton Broth): strong antimicrobial activity
- bactericidal activity (E. coli O157:H7 51659 [2]): 100%
- MIC (S. aureus 33592): not very effective
- MIC (S. aureus BAA-1718): not very effective

Compound: VRLIVAVRIWRR-NH2 (C-terminus assumed) [IDR-1018, reference compound]
- bactericidal activity (S. aureus MRSA 33592 [6]): 100%
- hemolysis (human red blood cells; [7]): negligible hemolysis
- bactericidal activity (E. coli O157:H7 51659 [2]): 100%
